The target in series [1] is T1, cynomolgus BK1-receptor (Macaca fascicularis, UniProt Q3BCU0).
T1 construct: expressed in transfected cells; host or cells: CHO cells
T1 sequence (Q3BCU0 1-352): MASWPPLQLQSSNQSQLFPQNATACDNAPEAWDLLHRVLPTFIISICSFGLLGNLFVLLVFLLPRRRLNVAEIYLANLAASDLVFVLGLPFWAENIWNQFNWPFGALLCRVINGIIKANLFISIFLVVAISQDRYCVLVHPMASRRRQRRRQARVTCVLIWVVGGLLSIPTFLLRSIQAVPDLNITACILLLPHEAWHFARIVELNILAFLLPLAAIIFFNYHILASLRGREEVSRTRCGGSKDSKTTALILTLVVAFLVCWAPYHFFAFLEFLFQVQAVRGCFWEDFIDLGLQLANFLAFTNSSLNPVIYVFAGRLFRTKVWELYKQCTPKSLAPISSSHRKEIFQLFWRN
Briefly: cynoBK1-receptor binding assay. How it is done:
Description of the Method of Binding the CynoBK1-Receptor
CHO cells that express the cynomolgus BK1-receptor are cultivated in “HAM'S F-12 Medium”. The medium is removed from confluent cultures, the cells are washed with PBS buffer, scraped off or detached using Versene and isolated by centrifuging. Then the cells are homogenised in suspension, the homogenate is centrifuged and resuspended. After the protein content has been determined 200 μl of the homogenate (50 to 250 μg protein/assay) are incubated for 60-180 minutes at ambient temperature with 0.5 to 5.0 nM kallidine (DesArg10,Leu9), [3,4-Prolyl-3,43H(N)] and increasing concentrations of the test substance in a total volume of 250 μl. The incubation is stopped by rapid filtration through GF/B glass fibre filters that have been pre-treated with polyethyleneimine (0.3%). The radioactivity bound to the protein is measured with a TopCount NXT. The radioactivity bound in the presence of 1.0 μM kallidine (DesArg10) is defined as non-specific binding. The concentration binding curve may be analysed using computer-aided non-linear curve fitting to determine the corresponding Ki value for the test substance.
Test results of the cynoBK1-receptor binding assay: […]

Series [2] deals with human hepatocytes. Briefly: metabolic clearance in human hepatocytes. The class given is in vitro ADME. The note with it: cryopreserved primary human hepatocytes, 5% human serum, 1 μM test compound, 6 h; well-stirred model, percentage of human hepatic blood flow. The source says: The metabolic stability can be measured by determining the decomposition in human hepatocytes and using the rate of decomposition to calculate the clearance, which in turn is expressed as a percentage of the human hepatic blood flow (% Qh). […] Thus, in the interests of achieving a long duration of activity it is highly advantageous if the active substance has a high metabolic stability (low clearance).
Description of Method for Determining Metabolic Clearance in Human Hepatocytes
The metabolic breakdown of the test substance is determined in a hepatocyte suspension. Cryopreserved primary human hepatocytes are incubated in a suitable incubation medium (e.g. Dulbecco's modified eagle medium, DMEM) which contains 5% human serum. After 30 minutes' pre-incubation in the incubator (37° C., 10% carbon dioxide) 5 μL of the test compound (80 μM, prepared from a 2 mM stock solution in dimethylsulphoxide and diluted 1:25 with incubation medium) are added to 395 μL of hepatocyte suspension (cell density in the range from 0.25-1 million cells/mL, typically 1 million cells/mL; final concentration of the test compound 1 μM). The cells are incubated for 6 hours in an incubator with an orbital agitator. At times 0, 0.5, 1, 2, 4 and 6 h, 25 μL of the medium are removed in each case. The medium removed is mixed with an excess of acetonitrile and centrifuged for 5 minutes. The supernatant is removed, evaporated to dryness under nitrogen and taken up in a mixture of 25% methanol and 0.1% formic acid. The reduction in the concentration of the test substance in the incubation medium is determined by coupling liquid chromatography with electrospray mass spectrometry. The linear phase of the decrease in the concentration of the test substance in the medium is used for the calculation. The intrinsic clearance is calculated as follows: CL_INTRINSIC=dose/AUC=(C0/CD)/(AUD+clast/k)×1000/60. C0: initial concentration in the incubation [μM], CD: cell density of the vital cells [10e6cells/mL], AUD: area under the curve [μM×h], clast: concentration of the last data point [μM], k: increase in the regression lines for the reduction in the test substance [h−1]. The intrinsic in vitro clearance calculated is now converted into the intrinsic in vivo clearance: CL_INTRINSIC_INVIVO [ml/min/kg]=(CL_INTRINSIC [μL/min/10e6cells]×hepatocellularity [10e6 cells/g liver]×liver factor [g/kg body weight])/1000 and the estimated human clearance is calculated using the well-stirred model: CL [ml/min/kg]=CL_INTRINSIC_INVIVO [ml/min/kg]×hepatic blood flow [ml/min/kg]/(CL_INTRINSIC_INVIVO [ml/min/kg]+hepatic blood flow [ml/min/kg]). […]

The mark [3] stands for this setting: CHO cell homogenate expressing cynomolgus BK1-receptor, radioligand kallidine (DesArg10,Leu9), [3,4-Prolyl-3,43H(N)].
The mark [4] stands for this setting: cynoBK1-receptor binding, repeated beside clearance in the metabolic stability table.

Here are results for nine compounds from patent US8372838B2, “Compounds as bradykinin B1 antagonists” (Boehringer Ingelheim International GmbH, priority 2010, dated 2013).

In general, Ki refers to the equilibrium dissociation constant of an inhibitor or competing ligand from its target. High values mean weaker binding, low ones tighter binding. The compound `O=C(NC1(C(=O)NCc2ccc(Nc3ccc(Cl)cc3C(F)(F)F)cn2)CC1)c1cn[nH]c(=O)c1` [Example 2, 6-oxo-1,6-dihydro-pyridazine-4-carboxylic acid-(1-{[5-(4-chloro-2-trifluoromethyl-phenylamino)-pyridin-2-ylmethyl]-carbamoyl}-cyclopropyl)-amide] displayed a Ki in series [1] (setting [3]) of 5.1 nM.
`O=C(N[C@@]1(C(=O)NCc2ccc(Nc3ccc(F)cc3C(F)(F)F)cc2)CCOC1)c1cn[nH]c(=O)c1` [Example 3, (S)-6-oxo-1,6-dihydro-pyridazine-4-carboxylic acid-{3-[4-(4-fluoro-2-trifluoromethyl-phenylamino)-benzylcarbamoyl]-tetrahydrofuran-3-yl}-amide]: the inhibition constant Ki in series [1] (setting [3]) and in series [1] (setting [4]) was 12 nM throughout. Besides, the Clearance in series [2] turned out to be 7 % Qh.
Take `O=C(N[C@@]1(C(=O)NCc2ccc(Nc3ccc(F)cc3C(F)(F)F)cc2F)CCOC1)c1cn[nH]c(=O)c1` [Example 6, (S)-6-oxo-1,6-dihydro-pyridazine-4-carboxylic acid-{3-[2-fluoro-4-(4-fluoro-2-trifluoromethyl-phenylamino)-benzylcarbamoyl]-tetrahydrofuran-3-yl}-amide]: the affinity in series [1] (setting [3]), expressed as Ki, was 3.2 nM. For the same compound, the Clearance in series [2] amounted to 6 % Qh.
As for `O=C(N[C@@]1(C(=O)NCc2ccc(Nc3ccccc3C(F)(F)F)cc2F)CCOC1)c1cn[nH]c(=O)c1` [Example 9, (S)-6-oxo-1,6-dihydro-pyridazine-4-carboxylic acid {3-[2-fluoro-4-(2-trifluoromethyl-phenylamino)-benzylcarbamoyl]-tetrahydro-furan-3-yl}-amide], the affinity in series [1] (setting [3]), expressed as Ki, was 6.6 nM.
The same measure, in the same setting: with `O=C(N[C@@]1(C(=O)NCc2ccc(Nc3ccc(Cl)cc3C(F)(F)F)cc2F)CCOC1)c1cn[nH]c(=O)c1` [Example 7, (S)-6-oxo-1,6-dihydro-pyridazine-4-carboxylic acid-{3-[4-(4-chloro-2-trifluoromethyl-phenylamino)-2-fluoro-benzylcarbamoyl]-tetrahydrofuran-3-yl}-amide] the figure was 30 nM.
Take `O=C(N[C@@]1(C(=O)NCc2ccc(Nc3ccccc3C(F)(F)F)cc2)CCOC1)c1cn[nH]c(=O)c1` [Example 5, (S)-6-oxo-1,6-dihydro-pyridazine-4-carboxylic acid-{3-[4-(2-trifluoromethyl-phenylamino)-benzylcarbamoyl]-tetrahydrofuran-3-yl}-amide]: the Ki in series [1] (setting [3]) and in series [1] (setting [4]) was 11 nM in each case. Also, in series [2], the Clearance amounted to 22 % Qh.
Consider `O=C(N[C@@]1(C(=O)NCc2ccc(Nc3ccc(Br)cc3C(F)(F)F)cc2)CCOC1)c1cn[nH]c(=O)c1` [Example 8, (S)-6-oxo-1,6-dihydro-pyridazine-4-carboxylic acid-{3-[4-(4-bromo-2-trifluoromethyl-phenylamino)-benzylcarbamoyl]-tetrahydrofuran-3-yl}-amide], for which the affinity in series [1] (setting [3]) corresponds to a Ki of 37 nM.
As to `O=C(NC1(C(=O)NCc2ccc(Nc3ccc(F)cc3C(F)(F)F)cn2)CC1)c1cn[nH]c(=O)c1` [Example 1, 6-oxo-5,6-dihydro-pyridazine-4-carboxylic acid-(1-{[5-(4-fluoro-2-trifluoromethyl-phenylamino)-pyridin-2-ylmethyl]-carbamoyl}-cyclopropyl)-amide], the inhibitory constant (Ki) in series [1] (setting [3]) and in series [1] (setting [4]) was 3.5 nM in each case. For the same compound, the Clearance in series [2] was determined as 1 % Qh.
In turn, `O=C(N[C@@]1(C(=O)NCc2ccc(Nc3ccc(Cl)cc3C(F)(F)F)cc2)CCOC1)c1cn[nH]c(=O)c1` [Example 4, (S)-6-oxo-1,6-dihydro-pyridazine-4-carboxylic acid-{3-[4-(4-chloro-2-trifluoromethyl-phenylamino)-benzylcarbamoyl]-tetrahydrofuran-3-yl}-amide] registered a Ki in series [1] (setting [3]) of 27 nM.
